pIC50: −log10 of the molar value.
What was measured:
ROS tyrosine kinase = biological target: T1, ROS tyrosine kinase (Homo sapiens, UniProt P08922); assay: ROS tyrosine kinase inhibitory activity test (ELISA); assay type: biochemical, humans; conditions: 25 μM ATP substrate solution, 30° C., one hour
T1 construct: purchased Carna Biosciences, Inc
Method: (§1) 1. Preparation of Test Substance:
(§2) A test substance was dissolved in dimethyl sulfoxide (DMSO) to 10 mM and further diluted with DMSO to concentrations of 100-fold of the concentrations to be measured (100, 10, 1, 0.1, and 0.01 μM). Furthermore, the resultant was diluted with an assay buffer to 20-fold, thereby preparing a solution as a test substance solution. A solution prepared by diluting DMSO with an assay buffer to 20-fold was used as a negative control. A buffer containing 15 mM Tris-Cl (pH 7.5), 0.01 (v/v) % Tween-20, and 1 mM dithiothreitol was used as the assay buffer.
(§3) 2. Measurement of ROS Tyrosine Kinase Activity and JAK2 Tyrosine Kinase Activity:
(§4) The activity was measured by adopting the ELISA method. […] Finally, an ROS kinase or a JAK2 kinase (derived from humans, Carna Biosciences, Inc.) (diluted with the assay buffer to 0.25 nM) was added to the plate at 20 μL per well, and the resulting mixture was stirred. A reaction was performed at 30° C. for one hour. After the plate was washed 4 times with a washing buffer (50 mM Tris-Cl (pH 7.5), 150 mM NaCl, and 0.02 (v/v) % Tween-20), a blocking buffer (0.1% bovine serum albumin, 50 mM Tris-Cl (pH 7.5), 150 mM NaCl, and 0.02 (v/v) % Tween-20) was added to the plate at 150 μL per well, and incubated at 30° C. for 30 minutes. The blocking buffer was then removed, and a horse radish peroxidase-labeled anti-phosphorylated tyrosine antibody (BD Biosciences, Inc.) (diluted with the blocking buffer to 10,000-fold) was added to the plate at 100 μL per well, and the plate was incubated at 30° C. for 30 minutes. After the plate was washed 4 times with the washing buffer, a 3,3′,5,5′-tetramethylbenzidine solution (Sigma-Aldrich Co., Ltd.) was added to the plate at 100 μL per well to develop the color for 10 minutes. The reaction was stopped by adding 0.1 M sulfuric acid at 100 μL per well. An absorbance at 450 nm was measured with a microplate reader (Model 3550, manufactured by BIO-RAD, Benchmark, manufactured by BIO-RAD, or iMARK, manufactured by BIO-RAD).
(§5) 3. Analysis of Measurement Results:
(§6) A non-linear regression analysis was performed for the measured absorbance with an SAS system (SAS Institute Inc.), and a concentration of each of the test substances of inhibiting the ROS tyrosine kinase activity or JAK2 tyrosine kinase activity at 50% (IC50) was calculated. The inhibitory activity (IC50, nM) of each of the test substances against the ROS tyrosine kinase or JAK2 tyrosine kinase is shown in Tables 6 to 8.

JAK2 tyrosine kinase = biological target: T2, JAK2 tyrosine kinase (Homo sapiens, UniProt O60674); assay: JAK2 tyrosine kinase inhibitory activity test (ELISA); assay type: biochemical, humans; conditions: 25 μM ATP substrate solution, 30° C., one hour
T2 construct: purchased Carna Biosciences, Inc
T2 sequence (O60674 whole entry): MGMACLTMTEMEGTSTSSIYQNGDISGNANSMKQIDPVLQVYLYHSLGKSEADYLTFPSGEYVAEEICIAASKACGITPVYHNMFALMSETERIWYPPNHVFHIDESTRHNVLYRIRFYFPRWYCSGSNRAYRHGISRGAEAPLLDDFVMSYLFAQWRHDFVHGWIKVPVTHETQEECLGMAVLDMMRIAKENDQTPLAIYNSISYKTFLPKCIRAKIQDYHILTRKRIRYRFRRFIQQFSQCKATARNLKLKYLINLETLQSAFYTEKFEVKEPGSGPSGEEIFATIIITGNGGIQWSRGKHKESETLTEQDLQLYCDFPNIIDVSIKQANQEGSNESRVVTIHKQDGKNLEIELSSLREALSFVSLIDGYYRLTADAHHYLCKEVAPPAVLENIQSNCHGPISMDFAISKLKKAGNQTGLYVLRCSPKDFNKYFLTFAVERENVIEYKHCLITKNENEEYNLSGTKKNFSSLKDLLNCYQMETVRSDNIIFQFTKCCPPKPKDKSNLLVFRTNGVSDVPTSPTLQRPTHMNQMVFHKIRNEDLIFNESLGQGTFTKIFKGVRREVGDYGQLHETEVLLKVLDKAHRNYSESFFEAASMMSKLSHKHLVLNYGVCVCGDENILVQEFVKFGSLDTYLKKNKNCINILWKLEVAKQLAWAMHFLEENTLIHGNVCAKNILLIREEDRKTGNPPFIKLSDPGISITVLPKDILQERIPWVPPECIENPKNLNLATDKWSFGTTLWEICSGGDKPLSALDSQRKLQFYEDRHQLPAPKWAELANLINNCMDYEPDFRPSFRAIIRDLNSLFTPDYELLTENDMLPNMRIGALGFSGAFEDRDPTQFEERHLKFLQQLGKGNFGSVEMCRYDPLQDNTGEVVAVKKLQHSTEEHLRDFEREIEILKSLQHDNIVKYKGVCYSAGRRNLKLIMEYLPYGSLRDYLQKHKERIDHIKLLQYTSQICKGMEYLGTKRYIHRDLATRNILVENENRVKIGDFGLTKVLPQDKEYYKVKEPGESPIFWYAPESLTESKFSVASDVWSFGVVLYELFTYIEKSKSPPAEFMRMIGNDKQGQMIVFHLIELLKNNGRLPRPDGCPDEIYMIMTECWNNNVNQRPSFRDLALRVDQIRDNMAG
Method: as §1, §2, §3, §4, §5, §6

T1 sequence (P08922 28-2347): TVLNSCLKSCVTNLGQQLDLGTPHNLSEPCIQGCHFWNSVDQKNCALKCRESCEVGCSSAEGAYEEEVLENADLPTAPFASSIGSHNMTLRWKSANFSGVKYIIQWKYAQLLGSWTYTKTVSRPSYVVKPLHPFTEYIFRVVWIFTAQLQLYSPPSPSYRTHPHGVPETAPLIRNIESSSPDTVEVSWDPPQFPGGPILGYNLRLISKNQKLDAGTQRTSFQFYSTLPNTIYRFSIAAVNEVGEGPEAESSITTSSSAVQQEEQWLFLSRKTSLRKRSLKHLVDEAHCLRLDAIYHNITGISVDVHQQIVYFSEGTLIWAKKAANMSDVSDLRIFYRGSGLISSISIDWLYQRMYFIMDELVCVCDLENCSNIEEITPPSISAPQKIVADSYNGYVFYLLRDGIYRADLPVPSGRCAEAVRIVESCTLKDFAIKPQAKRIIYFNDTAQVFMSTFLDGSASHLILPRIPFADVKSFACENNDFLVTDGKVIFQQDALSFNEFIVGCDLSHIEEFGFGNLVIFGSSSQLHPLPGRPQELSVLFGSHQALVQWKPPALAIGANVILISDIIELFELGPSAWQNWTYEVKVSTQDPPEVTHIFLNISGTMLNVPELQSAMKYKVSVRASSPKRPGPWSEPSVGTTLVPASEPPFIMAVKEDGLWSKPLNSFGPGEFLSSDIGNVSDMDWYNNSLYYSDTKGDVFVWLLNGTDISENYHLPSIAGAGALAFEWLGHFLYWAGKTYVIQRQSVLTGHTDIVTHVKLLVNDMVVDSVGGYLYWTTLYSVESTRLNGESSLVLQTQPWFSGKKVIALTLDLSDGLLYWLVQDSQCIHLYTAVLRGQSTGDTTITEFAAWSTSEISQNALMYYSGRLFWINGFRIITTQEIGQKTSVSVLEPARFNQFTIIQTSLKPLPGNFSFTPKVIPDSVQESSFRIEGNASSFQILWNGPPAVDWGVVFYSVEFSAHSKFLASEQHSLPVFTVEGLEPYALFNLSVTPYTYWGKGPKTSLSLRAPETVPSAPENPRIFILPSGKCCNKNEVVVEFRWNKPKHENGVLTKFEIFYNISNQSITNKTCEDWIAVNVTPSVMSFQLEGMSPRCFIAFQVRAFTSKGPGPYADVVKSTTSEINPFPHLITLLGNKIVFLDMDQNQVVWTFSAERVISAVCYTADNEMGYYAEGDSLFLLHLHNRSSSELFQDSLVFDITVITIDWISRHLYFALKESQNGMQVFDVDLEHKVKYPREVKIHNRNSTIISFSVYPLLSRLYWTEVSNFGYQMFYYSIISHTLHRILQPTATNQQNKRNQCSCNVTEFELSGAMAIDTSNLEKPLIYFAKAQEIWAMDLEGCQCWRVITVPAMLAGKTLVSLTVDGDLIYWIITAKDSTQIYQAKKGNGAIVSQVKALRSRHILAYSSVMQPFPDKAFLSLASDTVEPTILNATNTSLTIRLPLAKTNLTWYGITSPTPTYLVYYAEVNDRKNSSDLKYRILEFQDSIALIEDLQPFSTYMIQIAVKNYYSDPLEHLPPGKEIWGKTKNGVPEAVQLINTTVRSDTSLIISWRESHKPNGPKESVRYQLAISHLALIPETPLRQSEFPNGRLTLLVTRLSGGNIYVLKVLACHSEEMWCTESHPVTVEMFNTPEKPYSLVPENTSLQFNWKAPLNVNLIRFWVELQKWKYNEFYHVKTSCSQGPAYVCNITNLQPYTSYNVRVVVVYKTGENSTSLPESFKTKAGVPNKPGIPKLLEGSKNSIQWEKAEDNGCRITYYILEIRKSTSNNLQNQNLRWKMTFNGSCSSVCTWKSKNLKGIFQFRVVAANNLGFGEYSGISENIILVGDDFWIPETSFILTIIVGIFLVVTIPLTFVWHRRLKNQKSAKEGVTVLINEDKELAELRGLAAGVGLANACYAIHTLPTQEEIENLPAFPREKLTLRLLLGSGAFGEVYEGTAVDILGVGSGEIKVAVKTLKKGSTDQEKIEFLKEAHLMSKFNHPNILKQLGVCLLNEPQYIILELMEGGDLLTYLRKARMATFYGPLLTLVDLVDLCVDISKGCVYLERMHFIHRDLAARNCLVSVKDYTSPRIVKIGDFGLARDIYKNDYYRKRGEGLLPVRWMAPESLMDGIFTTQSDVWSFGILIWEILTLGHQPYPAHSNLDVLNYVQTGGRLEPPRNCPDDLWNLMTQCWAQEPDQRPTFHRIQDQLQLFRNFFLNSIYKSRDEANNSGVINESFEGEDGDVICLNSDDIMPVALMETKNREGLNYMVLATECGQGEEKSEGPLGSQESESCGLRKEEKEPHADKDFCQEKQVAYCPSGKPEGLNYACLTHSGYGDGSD

Compound	pIC50 (ROS tyrosine kinase)	pIC50 (JAK2 tyrosine kinase)
Cc1ncc(N2CCCC2c2ccc(Cl)cc2)nc1Nc1ncc(C#N)s1 (stereo not shown) [Example 42, 2-({6-[2-(4-Chlorophenyl)pyrrolidin-1-yl]-3-methylpyrazin-2-yl}amino)-1,3-thiazole-5-carbonitrile]	8.80	7.00
Cc1nc(C2CC2)c(Nc2ncc(C#N)s2)nc1N1CCCC1c1ccc(Cl)cc1 (stereo not shown) [Example 44, 2-({6-[2-(4-Chlorophenyl)pyrrolidin-1-yl]-3-cyclopropyl-5-methylpyrazin-2-yl}amino)-1,3-thiazole-5-carbonitrile]	7.89	≤ 6.00
COc1c(Nc2ncc(C#N)s2)nc(N2CCCC2c2ccc(C)cc2)nc1-c1cccnc1F (stereo not shown) [Example 49, 2-({6-(2-Fluoropyridin-3-yl)-5-methoxy-2-[2-(4-methylphenyl)pyrrolidin-1-yl]pyrimidin-4-yl}amino)-1,3-thiazole-5-carbonitrile]	7.28	< 6.00
Cc1cc(-c2ncc(N3CCCC3c3ccc(F)cc3)nc2Nc2ncc(C#N)s2)ccn1 (stereo not shown) [Example 53, 2-({6-[2-(4-Fluorophenyl)pyrrolidin-1-yl]-3-(2-methylpyridin-4-yl)pyrazin-2-yl}amino)-1,3-thiazole-5-carbonitrile]	7.17	< 6.00
COCCn1cc(-c2nc(N3CCC[C@H]3c3ccc(C)cc3)nc(Nc3ncc(C#N)s3)c2OC)cn1 [Example 58, 2-({5-Methoxy-6-[1-(2-methoxyethyl)-1H-pyrazol-4-yl]-2-[(2S)-2-(4-methylphenyl)pyrrolidin-1-yl]pyrimidin-4-yl}amino)-1,3-thiazole-5-carbonitrile]	8.66	6.62
Cc1ccc([C@@H]2CCCN2c2cc(C(N)=O)c(C3CC3)c(Nc3ncc(C#N)s3)n2)cc1 [Example 66, 2-[(5-Cyano-1,3-thiazol-2-yl)amino]-3-cyclopropyl-6-[(2S)-2-(4-methylphenyl)pyrrolidin-1-yl]pyridine-4-carboxamide]	9.08	6.04
Cc1ccc(C2CCCN2c2nc3c(c(Nc4ncc(C#N)s4)n2)CN(S(C)(=O)=O)CC3)cc1 (stereo not shown) [Example 72, 2-({2-[2-(4-Methylphenyl)pyrrolidin-1-yl]-6-(methylsulfonyl)-5,6,7,8-tetrahydropyrido[4,3-d]pyrimidin-4-yl}amino)-1,3-thiazole-5-carbonitrile]	7.01	< 6.00

Further compounds by rising pIC50 (ROS tyrosine kinase), results first:

pIC50 (ROS tyrosine kinase)	pIC50 (JAK2 tyrosine kinase)	Compound
7.77	6.55	Cc1ccccc1C1CCCN1c1cncc(Nc2ncc(C#N)s2)n1 (stereo not shown) [Example 47, 2-({6-[2-(2-Methylphenyl)pyrrolidin-1-yl]pyrazin-2-yl}amino)-1,3-thiazole-5-carbonitrile]
8.19	6.55	Cc1cccc(C2CCCN2c2cncc(Nc3ncc(C#N)s3)n2)c1 (stereo not shown) [Example 46, 2-({6-[2-(3-Methylphenyl)pyrrolidin-1-yl]pyrazin-2-yl}amino)-1,3-thiazole-5-carbonitrile]
8.74	6.77	Cc1ccc(C2CCCN2c2nc(C)c(C)c(Nc3ncc(C#N)s3)n2)cc1 (stereo not shown) [Example 52, 2-({5,6-Dimethyl-2-[2-(4-methylphenyl)pyrrolidin-1-yl]pyrimidin-4-yl}amino)-1,3-thiazole-5-carbonitrile]
9.15	7.68	Cc1ncc(N2CCCC2c2ccc(F)cc2)nc1Nc1ncc(C#N)s1 (stereo not shown) [Example 41, 2-({6-[2-(4-Fluorophenyl)pyrrolidin-1-yl]-3-methylpyrazin-2-yl}amino)-1,3-thiazole-5-carbonitrile]
